The source of these data is patent publication US7645802B2 (Biovail Laboratories International SRL., priority 2005, dated 2010).

The subject of one data set is CD-1 mice. Nature of the data set: clonic convulsions in CD-1 mice after intraperitoneal dosing (range finding and main study). On the procedure: Two studies were performed to investigate the relative proconvulsant properties of the two bupropion salts. In the first instance a range finding study was performed to establish the appropriate dose range for the main study. In each study the mice were divided into two dose groups and injected intraperitoneally with either bupropion HCl or bupropion HBr.
A clonic convulsion was defined as a stiffening of the animal followed by jerking movements. The convulsions were classified as mild, moderate and severe according to the following descriptions.
Mild: Head and tail slightly extended and little jerking
Moderate: Head and tail fully extended with some jerking
Severe: Head and tail fully extended with strong jerking
Post-treatment findings recorded included continuous observation for 120 minutes for evidence of clonic convulsions, and intermittent (fixed) observations for 24 hours for other signs, including tonic convulsions, movement, activity, paralysis, gait and evidence of recovery.

In the next data set the test system is mice. In words: Proconvulsant properties of bupropion salts: clonic convulsions in mice. The conditions noted are these: for Mean Number of Convulsions/Mouse / Total Number of convulsions: N=13. The procedure:
Number of convulsions and the intensity of the convulsions were recorded.
Mild: Head and tail slightly extended and little jerking; Moderate: Head and tail fully extended with some jerking; Severe: Head and tail fully extended with strong jerking. […] Step 2: To further investigate the patterns of convulsion occurrence using loglinear Poisson regression models. The number of convulsions was analyzed using the loglinear Poisson regression models with formulation, dose, and severity as predictors.

Data set [1] in a line: forced degradation stability study of bupropion salts in vials, 40 degrees C./75% RH, HPLC assay and impurities. The conditions noted are these: for order of stability (assay, % potency): salt plus excipients, 20 days, 40 degrees C./75% RH.
The nature of data set [2]: forced degradation of bupropion HBr and HCl in the presence of excipients at 55° C., 55° C./100% RH, 100° C., 105° C. (incl. TGA at 100° C.). Particulars: TGA experiment at 100° C. Format: physicochemical.
Procedure: Further forced degradation studies were carried out at 55° C., at 55° C. and 100% relative humidity, at 100° C., and at 105° C. on both the HCl and HBr Bupropion salts in the presence of excipients. […] FIG. 53 is a graph showing the loss of each salt over time in a TGA experiment at 100° C.
Setting [3] is: 100 mg/kg i.p., pooled data N = 13/dose group, hydrochloride.
Setting [4] is: 150 mg/kg i.p., pooled data N = 13/dose group, hydrochloride.
[5] abbreviates: 150 mg/kg, Moderate, hydrochloride.
Where [6] appears, read: 150 mg/kg, Severe, hydrochloride.
[7] abbreviates: spiked with IPA/EtOH, closed vials, 32 days.

Where a name gives a salt, the structure may show the parent alone. Read-outs that look alike come from different tables or passages of the source.

Turning to `CC(NC(C)(C)C)C(=O)c1cccc(Cl)c1.Cl` (racemic) [bupropion hydrochloride, (±)-1-(3-chlorophenyl)-2-[(1,1-dimethylethyl)amino]-1-propanone hydrochloride], the “severity of seizure activity in the initial behavioral study” value in the data set on CD-1 mice (CD-1 mice) is “more severe”. For the same compound, the “Mean Number of Convulsions/Mouse, cumulative” value in the data set with mice (100 mg/kg, All) stood at 0.23. Further, the “odds of number of convulsions vs the bupropion hydrobromide group” value with mice (loglinear Poisson regression, adjusted for dose and severity) turned out to be 1.41. In addition, in data set [1], the “In IPA/EtOH, 3-CBZ: order of impurity content” value is reported as “maleate > HBr > HCl > Fumarate”; the “In IPA/EtOH, 852U77: order of impurity content” value is “fumarate > HBr ≈HCl ≈maleate ≈tosylate”; the “In IPA/EtOH, Total imp.: order of impurity content” value is reported as “fumarate > maleate > HBr > HCl > tosylate”; the “In water, 3-CBZ: order of impurity content” value is “HCl > HBr≈maleate≈fumarate”. Further, in data set [1], the “In water, 852U77: order of impurity content” value was “fumarate > HBr > maleate > HCl” and the “In water, Total imp.: order of impurity content” value was “fumarate > HBr > HCl > tosylate > maleate”. Further, the “order of stability (assay, % potency)” value in data set [1] (closed vials) is on record as “HBr>HCl≈tosylate>fumarate>maleate”. Further, the “disproportionation of the salt at elevated temperatures (TGA, loss of API)” value in data set [2] was “disproportionation of the HCl salt occurs with concomitant loss of gaseous HCl”.
On to `CC(NC(C)(C)C)C(=O)c1cccc(Cl)c1` (centres unmarked) [Bupropion HCl, bupropion hydrochloride], for which the “Mean Number of Convulsions/Mouse” value came out at 0 in the data set on CD-1 mice (75 mg/kg i.p. (as Bupropion HCl, HBr equimolar), range-finding study, N = 3/dose group); 0.2 in the data set with CD-1 mice (setting [3]); 1.0 in the data set with CD-1 mice (100 mg/kg i.p., range-finding study, N = 3/dose group, hydrochloride); 0 in the data set on CD-1 mice (100 mg/kg i.p., second (main) study, N = 10/dose group, hydrochloride); 71.0 in the data set with CD-1 mice (setting [4]); 32.0 with CD-1 mice (150 mg/kg i.p., range-finding study, N = 3/dose group, hydrochloride). Moreover, the “Mean Number of Convulsions/Mouse” value in the data set with CD-1 mice (150 mg/kg i.p., second (main) study, N = 10/dose group, hydrochloride) was found to be 82.7; in the data set on mice (100 mg/kg, Mild, hydrochloride) it was 0.0; in the data set on mice (100 mg/kg, Moderate) it was 0.08; in the data set with mice (100 mg/kg, Severe, 120 min observation, hydrochloride), 0.15; in the data set on mice (150 mg/kg, Mild, hydrochloride), 6.23; in the data set on mice (setting [5]), 8.69. For the same compound, the “Mean Number of Convulsions/Mouse” value with mice (setting [6]) is 56.08. The entries for the “Mean Intensity of Convulsions/Mouse % of Total: Mild” value with CD-1 mice (setting [3]) and with CD-1 mice (setting [4]) were 0.0 % of Total and 8.8 % of Total, respectively. Moreover, the “Mean Intensity of Convulsions/Mouse % of Total: Moderate” value in the data set with CD-1 mice (setting [3]) is given as 33.3 % of Total; with CD-1 mice (setting [4]), 12.2 % of Total. For the same compound, the “Mean Intensity of Convulsions/Mouse % of Total: Severe” value was 66.7 % of Total in the data set on CD-1 mice (setting [3]) and 79.0 % of Total with CD-1 mice (setting [4]). Besides, the “numbers of mice that had convulsions in the dose group” value is reported as 2/13 in the data set with CD-1 mice (setting [3]); 2/3 in the data set on CD-1 mice (100 mg/kg i.p., range-finding study, N = 3/dose group); 13/13 in the data set on CD-1 mice (150 mg/kg i.p., pooled data N = 13/dose group); 3/3 in the data set on CD-1 mice (150 mg/kg i.p., range-finding study, N = 3/dose group); 10/10 in the data set on CD-1 mice (150 mg/kg i.p., second (main) study, N = 10/dose group); 13/13 in the data set with CD-1 mice ([…] i.p., pooled data N = 13/dose group, hydrochloride). Moreover, the “numbers of mice that had convulsions in the dose group” value in the data set on CD-1 mice ([…] i.p., range-finding study, N = 3/dose group) was 3/3; in the data set on CD-1 mice ([…] i.p., second (main) study, N = 10/dose group, hydrochloride) it was 10/10. Moreover, the “threshold for tonic convulsions” value in the data set with CD-1 mice (range finding study, i.p., hydrochloride) amounted to 100 mg/kg. The “Mean Number of Convulsions/Mouse, cumulative” value in the data set on mice (100 mg/kg, All, hydrochloride) was 0.23; in the data set with mice (100 mg/kg, Severe + Moderate, hydrochloride), 0.23; with mice (150 mg/kg, All, hydrochloride), 71.00; in the data set on mice (150 mg/kg, Severe + Moderate, hydrochloride), 64.77. In addition, the “Total Number of convulsions” value in the data set with mice (100 mg/kg, Mild, hydrochloride) came out at 0; in the data set on mice (100 mg/kg, Moderate), 1; in the data set with mice (100 mg/kg, Severe, hydrochloride), 2; with mice (150 mg/kg, Mild, hydrochloride), 81; in the data set with mice (setting [5]), 113; with mice (setting [6]) it was 729.
As to `Br.CC(NC(C)(C)C)C(=O)c1cccc(Cl)c1` (centres unmarked) [bupropion hydrobromide], the “reduction in the number of convulsant mice versus HCl salt” value with CD-1 mice ([…] dose level, pooled data) turned out to be 15.4%. Also, in the data set on mice (100 mg/kg, All), the “Mean Number of Convulsions/Mouse, cumulative” value stood at 0.77. Also, in data set [1], the “In water, 852U77: order of impurity content” value is “fumarate > HBr > maleate > HCl” and the “In water, Total imp.: order of impurity content” value was “fumarate > HBr > HCl > tosylate > maleate”. Also, in data set [1] (closed vials), the “order of stability (assay, % potency)” value is “HBr>HCl≈tosylate>fumarate>maleate”. Moreover, in data set [1] (setting [7]), the “In IPA/EtOH, 3-CBZ: order of impurity content” value is “maleate > HBr > HCl > Fumarate”; the “In IPA/EtOH, 852U77: order of impurity content” value was “fumarate > HBr ≈HCl ≈maleate ≈tosylate”; the “In IPA/EtOH, Total imp.: order of impurity content” value was “fumarate > maleate > HBr > HCl > tosylate”. The “In water, 3-CBZ: order of impurity content” value in data set [1] (spiked with water, closed vials, 32 days) is “HCl > HBr≈maleate≈fumarate”. Also, in data set [2], the “disproportionation of the salt at elevated temperatures (TGA, loss of API)” value is listed as “did not occur”.
